IC50 data for one substance are collected here from patent US6596705B1, “Inhibition of L-selectin and P-selection mediated binding using heparin” (The Regents of the University of California, priority 1998, dated 2003).

In assay [1] the target is L-selectin. The assay is described as follows: ELISA inhibition of L-selectin binding to immobilized SLe^x. The following applies: average of 2-3 experiments, concentration from assumed average molecular weight. The procedure:
(§1) ELISA inhibition assays were performed as previously reported (O'Connell et al., Proc. Natl. Acad. Sci. USA 93:5883-5887 (1996); Koenig et al., supra, 1997). Sterile 96 well ELISA plates were coated with 200 ng of polyacrylamide-SLe^x (Glycotech; Rockville Md.) by overnight incubation at […] in 100 μl of 50 mM sodium carbonate/bicarbonate buffer, pH 9.5. Plates were blocked for at least 2 hours at 4° C. with 200 μl of 20 mM Hepes, 125 mM NaCl, 2 mM CaCl2, 2 mM MgCl2, 1% protease-free BSA, pH 7.45 (osmolarity 290 milliosmoles) per well. During the blocking step, the selectin-Rg chimeras were separately preincubated at 4° C. with a peroxidase-conjugated goat anti-human IgG secondary antibody (Jackson Immunoresearch Laboratories, Inc.; West Grove Pa.) in assay buffer for approximately 1 hour.
(§2) Final selectin-Rg concentration was 20 nM, and the secondary antibody dilution was 1:1000. […]
(§3) These tubes were preincubated at 4° C. for 30 minutes, then added to ELISA plates, in duplicates, to a well volume of 100 μl. […] The absorbance at 492 nm was determined using SOFTMAX software and a microplate reader (Molecular Devices Inc., Menlo Park Calif.). Prior to curve fitting, the absorbance values were converted into percentages for comparative purposes using the formula: ({(average of duplicates)−(negative control)}/{(positive control)−(negative control)})×100) using the SOFTMAX software.
(In general: ELISA stands for enzyme-linked immunosorbent assay.)

For assay [2], the target named is P-selectin. The assay is described as follows: ELISA inhibition of P-selectin binding to immobilized SLe^x. The following applies: average of 2-3 experiments, concentration from assumed average molecular weight. The procedure:
as §1, §2, §3

Chain of P-selectin (P16109 42-195 limits assumed): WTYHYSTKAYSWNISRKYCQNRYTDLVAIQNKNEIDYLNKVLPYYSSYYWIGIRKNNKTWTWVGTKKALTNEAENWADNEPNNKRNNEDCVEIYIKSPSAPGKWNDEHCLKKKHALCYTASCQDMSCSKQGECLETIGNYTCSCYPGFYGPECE
Chain of L-selectin (P14151 39-318 limits assumed): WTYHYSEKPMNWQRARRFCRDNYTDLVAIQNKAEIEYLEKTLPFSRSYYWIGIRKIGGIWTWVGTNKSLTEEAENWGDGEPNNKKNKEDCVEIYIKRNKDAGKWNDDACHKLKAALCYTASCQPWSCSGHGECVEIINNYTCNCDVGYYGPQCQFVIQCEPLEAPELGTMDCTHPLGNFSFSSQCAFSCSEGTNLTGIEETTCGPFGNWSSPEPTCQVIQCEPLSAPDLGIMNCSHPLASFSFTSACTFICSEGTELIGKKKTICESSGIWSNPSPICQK

What is called IC50 is the point on the concentration scale where inhibition reaches its midpoint. The low end stands for greater potency, the high end for weaker potency. In the case of “Siao2-3 Galβ1-4 (Fucal-3) GlcNAc [Sialyl Lewis^x]”, the figures for the concentration for half-maximal inhibition (IC50) in assay [1] and in assay [2] were 600 µM and 520 µM, respectively.
